{"source": "patent US6924289B2", "about": "“Benzyl(Idene)-lactam derivatives, their preparation and their use as selective (ANT) agonists of 5-HT1A- and/or 5-HT1D receptors” (Pfizer Inc, priority 1996, dated 2005)", "note": "Structures can show the parent of a compound that is named as a salt."}
{"smiles": "CN1CCN(c2ccccc2CC2CCCN(c3ccc(Cl)c(Cl)c3)C2=O)CC1.Cl", "note": "(stereo not drawn)", "melting point": "106 to 108 °C"}
{"smiles": "CN1CCN(c2ccc(F)cc2CC2CCCN(c3ccc(Cl)c(Cl)c3)C2=O)CC1.Cl", "note": "(stereo not drawn)", "melting point": "83 to 85 °C"}
{"smiles": "CN(C)CCOc1ccccc1C=C1CCN(c2ccc(Cl)c(Cl)c2)C1=O", "note": "(as salt: HCl) [Example 27, 1-(3,4-Dichlorophenyl)-3-[2-(2-dimethylaminoethoxy)-benzylidene]-pyrrolidin-2one]", "melting point": "111 to 112 °C"}
{"smiles": "CN1CCN(c2ccccc2C=C2CCN(c3ccc(C(F)(F)F)cc3)C2=O)CC1", "note": "(as salt: hydrochloride) (hydrate or solvate) [Example 16, 3-[2-(4-Methylpiperazin-1-yl)-benzylidene]-1-(4-trifluoromethylphenyl)-pyrrolidin-2-one]", "melting point": "181 to 183 °C"}
{"smiles": "CN1CCN(c2ccccc2C=C2C(=O)N(C)c3ccccc32)CC1.Cl.O", "note": "(hydrate or solvate)", "melting point": "120 °C (dec.)"}
{"smiles": "CN1CCN(c2ccccc2C=C2CCCN(c3ccc(Cl)cc3)C2=O)CC1", "note": "[Example 11, 1-(4Chlorophenyl)-3-[2-(4-methylpiperazin-1-yl)-benzylidene]-piperidin-2-one]", "melting point": "177 to 178 °C"}
{"smiles": "CN1CCN(c2ccccc2C=C2CCCN(c3ccc(Cl)c(Cl)c3)C2=O)CC1", "note": "[Example 12, 1-(3,4-Dichlorophenyl)-3-[2-(4-methylpiperazin-1-yl)-benzylidene]-piperidin-2-one]", "melting point": "138 to 139.5 °C"}
{"smiles": "CN1CCN(c2ccc(F)cc2C=C2CCCN(c3ccc(Cl)cc3)C2=O)CC1", "note": "[Example 13, 1-(4-Chlorophenyl)-3-[5-fluoro-2-(4-methylpiperazin-1-yl)-benzylidene]-piperidin-2-one]", "melting point": "158 to 159 °C"}
{"smiles": "CN1CCN(c2ccc(F)cc2C=C2CCCN(c3ccc(Cl)c(Cl)c3)C2=O)CC1", "note": "[Example 14, 1-(3,4-Dichlorophenyl)-3-[5-fluoro-2-(4methylpiperazin-1-yl)-benzylidene]-piperidin-2-one]", "melting point": "161 to 162 °C"}
{"smiles": "CN1CCN(c2ccccc2C=C2CCN(c3ccccc3)C2=O)CC1", "note": "[Example 15, 3-[2-(4-Methylpiperazin-1-yl)-benzylidene]-1 phenylpyrrolidin-2-one]", "melting point": "178 to 179.5 °C"}
{"smiles": "CN1CCN(c2ccccc2C=C2CCN(c3ccc(C(F)(F)F)cc3)C2=O)CC1", "note": "[Example 16, 3-[2-(4-Methylpiperazin-1-yl)-benzylidene]-1-(4-trifluoromethylphenyl)-pyrrolidin-2-one]", "melting point": "185 to 186.5 °C"}
{"smiles": "CN1CCN(c2ccccc2C=C2CCN(c3ccc(Cl)cc3)C2=O)CC1", "note": "[Example 18, 1-(4-Chlorophenyl)-3-[2-(4-methylpiperazin-1-yl)-benzylidene]-pyrrolidin-2-one]", "melting point": "188 to 190 °C"}
{"smiles": "CN1CCN(c2cc(F)ccc2C=C2CCN(c3ccccc3)C2=O)CC1", "note": "[Example 19, 3-[4Fluoro-2-(4-methylpiperazin-1-yl)-benzylidene]-1-phenylpyrrolidin-2-one]", "melting point": "199 to 200.5 °C"}
{"smiles": "CN1CCN(c2cccc(F)c2C=C2CCN(c3ccc(Cl)c(Cl)c3)C2=O)CC1", "note": "[Example 20, 1-(3,4-Dichlorophenyl)-3-[2-fluoro-6-(4-methylpiperazin-1-yl)-benzylidene]-pyrrolidin-2-one]", "melting point": "170 to 171 °C"}
{"smiles": "CN1CCN(c2ccc(F)cc2C=C2CCCN(c3ccc(F)c(F)c3)C2=O)CC1", "note": "[Example 21, 1-(3,4-Difluorophenyl)-3-[5-fluoro-2(4-methylpiperazin-1-yl)-benzylidene]-piperidin-2-one]", "melting point": "168 to 170 °C"}
{"smiles": "CN1CCN(c2ccc(F)cc2C=C2CCCN(CCc3ccc(Cl)cc3)C2=O)CC1", "note": "[Example 22, 1-[2-(4Chlorophenyl)ethyl]-3-[5-fluoro-2-(4-methylpiperazin-1-yl)-benzylidene]-piperidin-2-one]", "melting point": "88 to 90 °C"}
{"smiles": "CN1CCN(c2ccccc2C=C2CCN(Cc3ccc(Cl)cc3)C2=O)CC1", "note": "[Example 23, 1-(4-Chlorobenzyl)-3-[2-(4-methylpiperazin-1-yl)-benzylidene]-pyrrolidin-2-one]", "melting point": "129 to 130 °C"}
{"smiles": "CN1CCN(c2ccc(F)cc2C=C2CCN(Cc3ccc(Cl)cc3)C2=O)CC1", "note": "[Example 24, 1-(4-Chlorobenzyl)-3-[5-fluoro-2-(4-methylpiperazin-1-yl)-benzylidene]-pyrrolidin-2one]", "melting point": "131 to 132 °C"}
{"smiles": "Cc1ccc(N2CCN(C)CC2)c(C=C2CCN(c3ccc(Cl)c(Cl)c3)C2=O)c1", "note": "[Example 28, 1-(3,4-Dichlorophenyl)-3-[5-methyl-2-(4-methylpiperazin-1-yl)-benzylidene]-pyrrolidin-2one]", "melting point": "149 to 150 °C"}
{"smiles": "CN1CCN(c2ccccc2CC2CCN(c3ccc(F)c(F)c3)C2=O)CC1", "note": "(stereo not drawn) [Example 29, 1-(3,4-Difluorophenyl)-3-[2-(4-methylpiperazin-1-yl)-benzyl]-pyrrolidin-2-one]", "melting point": "130 to 131 °C"}
{"smiles": "CN1CCN(c2ccccc2CC2CCN(c3ccccc3)C2=O)CC1", "note": "(stereo not drawn) [Example 30, 3-[2-(4-Methylpiperazin-1-yl)-benzyl]-1-phenyl-pyrrolidin-2-one]", "melting point": "104 to 105.5 °C"}
